Experimental data reported in US20170107207A1, “AMINOPYRAZOLONE DERIVATIVE” (DAIICHI SANKYO COMPANY, LIMITED, priority 2014, published 2017).

Legend:
[1] = tested on: Liver cancer cell line HUH-7 cells; assay: Antitumor test, mouse subcutaneous transplantation model, HUH-7; format: in vivo; conditions: HUH-7 in nude mice, 4 consecutive days, tumor measured three days after final administration
From the text: (§1) In vivo test of test compound: Antitumor test using mouse subcutaneous transplantation model
Liver cancer cell line HUH-7 cells were dissociated from a culture flask by trypsin treatment, then suspended in an RPMI1640 medium containing 10% FBS, and then centrifuged to remove the supernatant. The cells were washed with PBS twice and then suspended in BD Matrigel Basement Membrane Matrix (manufactured by BD Biosciences). The cell suspension was subcutaneously transplanted at a dose of 5×10^6 cells/mouse to the right axillary regions of 6-week-old nude mice (CAnN.Cg-Foxn1[nu]/CrlCrlj[Foxn1nu/Foxn1nu], Charles River Laboratories Japan, Inc.). The test was conducted by using cancer-bearing mice having an estimated tumor volume (major axis×minor axis×minor axis/2) of 70 to 180 mm3 and grouping the cancer-bearing mice without significant difference in average estimated tumor volume from a negative control group. The compound of Example 113 was suspended in solvent (EtOH/DMA/Solutol HS-15/PEG400/5% HMPC). The suspension was orally administered to each mouse twice a day (BID) at a dose of 75 or 150 mg/kg for 4 consecutive days. Three days after the final administration date, the tumor sizes were measured.
The rate of tumor growth inhibition was also calculated in this test according to the following expression and is shown in a table. […]

[2] = tested on: Skin cancer cell line A375 cells; assay: Antitumor test, mouse subcutaneous transplantation model, A375; format: in vivo; conditions: A375 in nude mice, 4 consecutive days, tumor measured next day
From the text: as §1
Skin cancer cell line A375 cells were dissociated from a culture flask by trypsin treatment, then suspended in a DMEM medium (Life Technologies Corp.) containing 10% FBS, and then centrifuged to remove the supernatant. The cells were washed with this medium twice and then suspended in PBS. The cell suspension was subcutaneously transplanted at a dose of 3×10^6 cells/mouse to the right axillary regions of 6-week-old nude mice (BALB/cAJc1-nu/nu, CLEA Japan, Inc.). The test was conducted by using cancer-bearing mice having an estimated tumor volume (major axis×minor axis×minor axis/2) of 75 to 150 mm3 and grouping the cancer-bearing mice without significant difference in average estimated tumor volume from a negative control group. The compound of Example 113 was suspended in solvent (EtOH/DMA/Solutol HS-15/PEG400/5% HMPC). The suspension was orally administered to each mouse twice a day (BID) at a dose of 50, 100, or 200 mg/kg for 4 consecutive days. On the next day, the tumor sizes were measured.
(§2) The rate of tumor growth inhibition was also calculated in this test according to the following expression and is shown in a table.
(§3) Rate of tumor growth inhibition (%)=100−(Average value of the tumor volumes of the test compound administration group)/(Average value of the tumor volumes of the vehicle administration group)×100.

[3] = tested on: Lymphoma cell line RAMOS cells; assay: Antitumor test, mouse subcutaneous transplantation model, RAMOS; format: in vivo; conditions: RAMOS in SCID mice, 4 consecutive days, tumor measured next day
From the text: as §1
Lymphoma cell line RAMOS cells were suspended in a culture flask and then centrifuged to remove a supernatant. The cells were washed with PBS (phosphate buffered saline, Life Technologies Corp.) twice and then suspended in PBS. The cell suspension was subcutaneously transplanted at a dose of 1×10^7 cells/mouse to the right axillary regions of 6-week-old SCID mice (FOX CHASE SCID C.B.17/Icr-scid/scidJcl, CLEA Japan, Inc.). The test was conducted by using cancer-bearing mice having an estimated tumor volume (major axis×minor axis×minor axis/2) of 200 to 350 mm3 and grouping the cancer-bearing mice without significant difference in average estimated tumor volume from a negative control group. The compound of Example 113 was suspended in a solvent (EtOH/DMA/Solutol HS-15/PEG400/5% HMPC). The suspension was orally administered to each mouse twice a day (BID) at a dose of 25, 50, 100, or 200 mg/kg for 4 consecutive days. On the next day, the tumor sizes were measured.
as §2, §3

[4] = tested on: human lymphoma cell line RAMOS cells; assay: Cell growth inhibition test using RAMOS cell, MTT assay; format: cell-based; conditions: 50% growth inhibition concentration
Outline: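 Cells in RPMI1640 with 10% FBS were exposed to compound (DMSO ≤1%) for 3 days at 37° C, 5% CO2. Viability was read by MTT (4 h, formazan in DMSO, OD 540/660 nm) against a day-0 plate; GI50 was interpolated from T/C % growth rates.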

GI50 [4]: 47 nM
SMILES: CCOc1cc(F)c(Cl)cc1C(=O)NCC(C)(C)CC(=O)Nc1c(COC)n(C)n(-c2ccccc2)c1=O [Example 113, 5-Chloro-2-ethoxy-4-fluoro-N-(4-{[5-(methoxymethyl)-1-methyl-3-oxo-2-phenyl-2,3-dihydro-1H-pyrazol-4-yl]amino}-2,2-dimethyl-4-oxobutyl)benzamide]
Rate of tumor growth inhibition (%) ([1]; 75 mg/kg orally BID): 46%
Rate of tumor growth inhibition (%) ([1]; 150 mg/kg orally BID): 63%
Rate of tumor growth inhibition (%) ([2]; 50 mg/kg orally BID): 19%
Rate of tumor growth inhibition (%) ([2]; 100 mg/kg orally BID): 61%
Rate of tumor growth inhibition (%) ([2]; 200 mg/kg orally BID): 86%
Rate of tumor growth inhibition (%) ([3]; 25 mg/kg orally BID): 35%
Rate of tumor growth inhibition (%) ([3]; 50 mg/kg orally BID): 56%
Rate of tumor growth inhibition (%) ([3]; 100 mg/kg orally BID): 72%
Rate of tumor growth inhibition (%) ([3]; 200 mg/kg orally BID): 75%
